For one test, the target named is T1, Progesterone receptor (Homo sapiens, UniProt P06401).
T1 sequence (P06401 whole entry): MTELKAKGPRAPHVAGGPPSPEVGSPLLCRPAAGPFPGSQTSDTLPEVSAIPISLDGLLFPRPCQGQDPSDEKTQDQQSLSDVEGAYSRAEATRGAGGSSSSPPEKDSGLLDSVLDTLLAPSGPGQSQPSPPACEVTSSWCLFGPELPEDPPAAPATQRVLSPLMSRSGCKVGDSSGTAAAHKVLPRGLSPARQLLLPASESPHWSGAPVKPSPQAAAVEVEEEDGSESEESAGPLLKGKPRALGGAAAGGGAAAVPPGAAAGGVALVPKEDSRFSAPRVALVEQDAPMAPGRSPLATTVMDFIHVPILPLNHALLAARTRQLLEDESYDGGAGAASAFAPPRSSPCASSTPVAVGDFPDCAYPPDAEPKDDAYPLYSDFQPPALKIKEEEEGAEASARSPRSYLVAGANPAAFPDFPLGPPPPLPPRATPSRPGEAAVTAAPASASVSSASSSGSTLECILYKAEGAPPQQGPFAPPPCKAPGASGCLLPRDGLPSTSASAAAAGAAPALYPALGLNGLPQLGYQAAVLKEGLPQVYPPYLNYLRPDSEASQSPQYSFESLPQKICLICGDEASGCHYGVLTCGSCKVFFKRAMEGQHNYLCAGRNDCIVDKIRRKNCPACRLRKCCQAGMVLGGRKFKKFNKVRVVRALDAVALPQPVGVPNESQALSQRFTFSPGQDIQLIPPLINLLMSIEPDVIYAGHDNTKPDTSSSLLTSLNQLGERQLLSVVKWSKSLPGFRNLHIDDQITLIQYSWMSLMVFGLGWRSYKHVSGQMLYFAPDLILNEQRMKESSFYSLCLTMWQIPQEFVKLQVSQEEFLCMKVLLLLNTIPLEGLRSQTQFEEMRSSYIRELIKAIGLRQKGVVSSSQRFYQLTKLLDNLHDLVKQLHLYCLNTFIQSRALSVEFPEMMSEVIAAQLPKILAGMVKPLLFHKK

Test [1] has as its target T2, Thromboxane A2 receptor (Homo sapiens, UniProt P21731).
T2 sequence (P21731 whole entry): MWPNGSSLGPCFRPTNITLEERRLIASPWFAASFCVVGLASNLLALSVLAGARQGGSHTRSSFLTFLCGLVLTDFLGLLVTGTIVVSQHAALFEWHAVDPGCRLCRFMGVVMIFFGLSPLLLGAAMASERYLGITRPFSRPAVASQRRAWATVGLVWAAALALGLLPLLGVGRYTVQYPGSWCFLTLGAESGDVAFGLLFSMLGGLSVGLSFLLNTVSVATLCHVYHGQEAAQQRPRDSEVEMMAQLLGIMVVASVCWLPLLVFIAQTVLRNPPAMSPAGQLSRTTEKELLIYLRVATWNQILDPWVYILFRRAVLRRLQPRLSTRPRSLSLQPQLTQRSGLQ
The test is classed as functional, cell-based.

Test [2] deals with T2, Thromboxane A2 receptor. The test is classed as functional, cell-based. This is another data set of the same source.
In test [3] the target is T3, Alpha-2A adrenergic receptor (Homo sapiens, UniProt P08913).
T3 sequence (P08913 whole entry): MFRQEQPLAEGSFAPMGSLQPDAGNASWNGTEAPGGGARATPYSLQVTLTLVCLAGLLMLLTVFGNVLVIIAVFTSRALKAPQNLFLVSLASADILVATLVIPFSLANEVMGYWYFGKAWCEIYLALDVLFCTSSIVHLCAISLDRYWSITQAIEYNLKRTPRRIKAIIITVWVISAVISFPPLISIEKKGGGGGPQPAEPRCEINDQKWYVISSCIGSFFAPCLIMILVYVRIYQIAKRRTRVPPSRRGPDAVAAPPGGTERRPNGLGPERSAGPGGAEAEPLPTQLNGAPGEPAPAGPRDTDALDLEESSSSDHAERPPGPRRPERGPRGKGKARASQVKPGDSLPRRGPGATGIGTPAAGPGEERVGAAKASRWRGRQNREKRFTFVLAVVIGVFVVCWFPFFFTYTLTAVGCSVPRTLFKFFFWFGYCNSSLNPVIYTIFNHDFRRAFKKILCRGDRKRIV

In test [4] the target is Gamma-aminobutyric acid receptor subunit alpha-1 (Rattus norvegicus, UniProt P62813).
Chain of Gamma-aminobutyric acid receptor subunit alpha-1 (P62813 whole entry): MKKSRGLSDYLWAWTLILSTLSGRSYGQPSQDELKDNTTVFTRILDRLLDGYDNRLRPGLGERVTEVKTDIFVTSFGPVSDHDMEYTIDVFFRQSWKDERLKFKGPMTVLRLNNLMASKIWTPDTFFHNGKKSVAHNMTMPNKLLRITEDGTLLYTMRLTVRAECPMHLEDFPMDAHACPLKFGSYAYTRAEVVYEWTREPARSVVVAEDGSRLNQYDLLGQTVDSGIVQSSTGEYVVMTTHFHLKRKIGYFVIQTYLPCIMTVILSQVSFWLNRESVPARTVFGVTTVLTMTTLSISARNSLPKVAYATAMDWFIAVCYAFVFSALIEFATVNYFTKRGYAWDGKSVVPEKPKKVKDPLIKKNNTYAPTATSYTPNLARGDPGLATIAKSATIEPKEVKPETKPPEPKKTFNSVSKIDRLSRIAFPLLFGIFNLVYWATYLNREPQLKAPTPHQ
Test [5] concerns the target 3',5'-cyclic-AMP phosphodiesterase 4A (Homo sapiens, UniProt P27815). The test is classed as functional.
The target of the next test is T4, Adenosine receptor A1 (Homo sapiens, UniProt P30542).
T4 sequence (P30542 whole entry): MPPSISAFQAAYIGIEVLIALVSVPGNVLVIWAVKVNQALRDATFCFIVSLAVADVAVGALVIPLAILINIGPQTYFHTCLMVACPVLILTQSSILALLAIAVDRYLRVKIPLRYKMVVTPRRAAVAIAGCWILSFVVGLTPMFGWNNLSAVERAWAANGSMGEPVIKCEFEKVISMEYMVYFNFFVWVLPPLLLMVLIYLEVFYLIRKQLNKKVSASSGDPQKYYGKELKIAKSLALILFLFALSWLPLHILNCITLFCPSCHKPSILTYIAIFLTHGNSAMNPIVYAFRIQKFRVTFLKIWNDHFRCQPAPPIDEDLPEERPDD

The next test concerns the target Histamine H3 receptor (Homo sapiens, UniProt Q9Y5N1).
A further test concerns the target T5, Substance-K receptor (Homo sapiens, UniProt P21452).
T5 sequence (P21452 whole entry): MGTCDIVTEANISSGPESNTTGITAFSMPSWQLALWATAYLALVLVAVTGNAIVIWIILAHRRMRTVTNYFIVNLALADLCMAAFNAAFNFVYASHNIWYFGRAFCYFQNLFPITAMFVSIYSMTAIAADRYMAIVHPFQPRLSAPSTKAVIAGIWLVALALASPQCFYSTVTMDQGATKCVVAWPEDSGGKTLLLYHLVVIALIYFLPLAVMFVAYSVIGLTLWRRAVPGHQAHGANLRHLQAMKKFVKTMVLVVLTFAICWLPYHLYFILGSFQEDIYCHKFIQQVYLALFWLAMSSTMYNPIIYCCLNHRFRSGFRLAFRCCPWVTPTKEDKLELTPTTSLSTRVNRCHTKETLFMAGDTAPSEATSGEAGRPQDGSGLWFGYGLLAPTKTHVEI

A further test concerns the target D(1B) dopamine receptor (Homo sapiens, UniProt P21918).
Test [6] concerns the target Rod cGMP-specific 3',5'-cyclic phosphodiesterase subunit alpha (Homo sapiens, UniProt P16499). The test is classed as functional.

What is called AC50 is the midpoint of the concentration-response curve, whichever way the signal moves.
Also: assay procedure not described here.

Chain of Histamine H3 receptor (Q9Y5N1 whole entry): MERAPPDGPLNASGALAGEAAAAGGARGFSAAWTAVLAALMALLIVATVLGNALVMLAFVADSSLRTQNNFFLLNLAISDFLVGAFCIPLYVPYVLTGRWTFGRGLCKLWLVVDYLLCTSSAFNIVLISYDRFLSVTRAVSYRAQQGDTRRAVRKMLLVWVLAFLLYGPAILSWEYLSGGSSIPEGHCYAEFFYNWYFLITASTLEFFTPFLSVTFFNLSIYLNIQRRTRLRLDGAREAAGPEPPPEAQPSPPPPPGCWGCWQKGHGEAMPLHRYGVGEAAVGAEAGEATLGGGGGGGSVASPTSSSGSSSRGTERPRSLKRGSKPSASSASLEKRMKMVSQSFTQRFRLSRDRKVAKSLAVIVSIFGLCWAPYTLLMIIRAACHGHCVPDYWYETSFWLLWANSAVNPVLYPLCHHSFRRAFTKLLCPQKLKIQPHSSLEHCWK
Chain of D(1B) dopamine receptor (P21918 whole entry): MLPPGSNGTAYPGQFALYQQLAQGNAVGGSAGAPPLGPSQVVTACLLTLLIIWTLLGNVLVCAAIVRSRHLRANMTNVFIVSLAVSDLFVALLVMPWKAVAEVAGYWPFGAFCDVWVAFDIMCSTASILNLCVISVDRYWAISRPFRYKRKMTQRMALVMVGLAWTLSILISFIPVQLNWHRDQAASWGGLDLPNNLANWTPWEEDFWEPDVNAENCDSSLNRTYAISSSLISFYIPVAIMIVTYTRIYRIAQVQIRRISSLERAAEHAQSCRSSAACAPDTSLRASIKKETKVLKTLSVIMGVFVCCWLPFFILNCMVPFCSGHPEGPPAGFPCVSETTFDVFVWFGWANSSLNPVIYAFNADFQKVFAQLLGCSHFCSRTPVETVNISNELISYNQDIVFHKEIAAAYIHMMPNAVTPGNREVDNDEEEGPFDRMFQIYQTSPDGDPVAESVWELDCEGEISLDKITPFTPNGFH
Chain of 3',5'-cyclic-AMP phosphodiesterase 4A (P27815 whole entry): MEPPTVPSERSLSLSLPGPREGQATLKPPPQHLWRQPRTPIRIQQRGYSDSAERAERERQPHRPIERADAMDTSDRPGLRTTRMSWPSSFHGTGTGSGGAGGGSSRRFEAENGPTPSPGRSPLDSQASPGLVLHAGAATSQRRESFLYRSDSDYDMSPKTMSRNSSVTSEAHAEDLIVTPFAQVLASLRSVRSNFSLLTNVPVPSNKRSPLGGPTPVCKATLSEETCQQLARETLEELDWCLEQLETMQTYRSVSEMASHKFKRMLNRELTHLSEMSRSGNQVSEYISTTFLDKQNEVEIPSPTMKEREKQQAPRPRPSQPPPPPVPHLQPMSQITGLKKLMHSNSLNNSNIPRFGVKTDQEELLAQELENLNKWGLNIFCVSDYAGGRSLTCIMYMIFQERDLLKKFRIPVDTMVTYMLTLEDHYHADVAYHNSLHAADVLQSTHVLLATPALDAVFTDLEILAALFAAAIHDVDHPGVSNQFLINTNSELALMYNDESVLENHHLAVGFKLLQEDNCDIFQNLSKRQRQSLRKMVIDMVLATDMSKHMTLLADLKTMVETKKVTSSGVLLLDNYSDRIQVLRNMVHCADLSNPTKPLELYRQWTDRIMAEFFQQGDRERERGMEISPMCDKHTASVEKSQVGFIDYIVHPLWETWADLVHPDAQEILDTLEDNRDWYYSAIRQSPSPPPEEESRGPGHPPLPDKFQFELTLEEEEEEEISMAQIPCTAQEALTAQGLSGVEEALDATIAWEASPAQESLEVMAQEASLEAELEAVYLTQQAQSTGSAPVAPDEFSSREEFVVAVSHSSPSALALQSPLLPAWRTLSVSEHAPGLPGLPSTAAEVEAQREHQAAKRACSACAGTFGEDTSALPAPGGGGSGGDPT
Chain of Rod cGMP-specific 3',5'-cyclic phosphodiesterase subunit alpha (P16499 whole entry): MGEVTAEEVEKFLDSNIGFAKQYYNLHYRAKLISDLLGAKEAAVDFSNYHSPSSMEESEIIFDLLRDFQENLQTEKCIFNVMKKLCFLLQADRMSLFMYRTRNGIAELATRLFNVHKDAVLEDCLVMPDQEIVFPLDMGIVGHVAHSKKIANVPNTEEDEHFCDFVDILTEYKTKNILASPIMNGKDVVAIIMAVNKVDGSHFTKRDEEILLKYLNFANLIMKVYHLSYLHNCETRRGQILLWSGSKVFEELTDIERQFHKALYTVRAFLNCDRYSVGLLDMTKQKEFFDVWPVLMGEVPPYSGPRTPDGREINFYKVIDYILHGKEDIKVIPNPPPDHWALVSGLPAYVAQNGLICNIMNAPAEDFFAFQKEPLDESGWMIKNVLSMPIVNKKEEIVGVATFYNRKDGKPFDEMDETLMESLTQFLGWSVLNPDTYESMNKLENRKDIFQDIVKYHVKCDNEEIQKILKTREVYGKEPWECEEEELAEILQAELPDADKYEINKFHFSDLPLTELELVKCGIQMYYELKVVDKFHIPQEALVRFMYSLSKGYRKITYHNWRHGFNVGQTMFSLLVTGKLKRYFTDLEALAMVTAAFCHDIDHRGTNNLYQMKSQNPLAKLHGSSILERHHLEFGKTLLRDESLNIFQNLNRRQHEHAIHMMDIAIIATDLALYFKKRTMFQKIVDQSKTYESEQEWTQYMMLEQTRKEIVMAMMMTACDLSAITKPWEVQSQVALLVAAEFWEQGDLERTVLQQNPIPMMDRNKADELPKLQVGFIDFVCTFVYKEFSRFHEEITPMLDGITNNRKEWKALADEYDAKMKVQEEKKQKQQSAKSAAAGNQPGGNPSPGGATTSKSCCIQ

On to `NCCCC(O)(P(=O)(O)O)P(=O)(O)O` [ALENDRONIC ACID], for which the AC50 (at Progesterone receptor; at Thromboxane A2 receptor [1]; at Thromboxane A2 receptor [2]; in [3]; in [4]; in test [5]) was greater than 30 µM each time. Besides, the AC50 at Adenosine receptor A1 and on Histamine H3 receptor was greater than 30 µM each time.
As to `COC1=C(OC)C(=O)C(CCCCCCCCCCO)=C(C)C1=O` [IDEBENONE], the AC50 (at Substance-K receptor; at D(1B) dopamine receptor; in test [6]) was greater than 10 µM each time.
As to `O=C1CN=C(c2ccccc2)c2cc(Cl)ccc2N1` [NORDAZEPAM], the AC50 (at Substance-K receptor; on D(1B) dopamine receptor; in [6]) was greater than 10 µM in each case.
In the case of `CC(CCc1ccccc1)NC(C)C(O)c1ccc(O)cc1` (centres undefined) [NYLIDRIN], the AC50 (on Substance-K receptor; at D(1B) dopamine receptor; in test [6]) was greater than 10 µM in each case.
On to `O=C1Nc2ccc(Cl)cc2C(c2ccccc2)=NC1O` (centres undefined) [OXAZEPAM], for which the AC50 (on Substance-K receptor; on D(1B) dopamine receptor; in [6]) was greater than 10 µM in each case.
For the molecule `C[n+]1ccccc1/C=N/O` [PRALIDOXIME], the AC50 (at Progesterone receptor; at Thromboxane A2 receptor [1]; at Thromboxane A2 receptor [2]; in test [3]; in [4]; in test [5]) was greater than 30 µM in each case. In addition, the AC50 on Adenosine receptor A1 and at Histamine H3 receptor was greater than 30 µM each time.
As to `N#C[C@@H]1CCCN1C(=O)CNC12CC3CC(CC(O)(C3)C1)C2` [VILDAGLIPTIN], the AC50 (on Substance-K receptor; on D(1B) dopamine receptor; in test [6]) was greater than 10 µM each time.
In the case of COLISTIN, the concentration at half-maximal activity (AC50) at Progesterone receptor is greater than 30 µM; at Thromboxane A2 receptor [1], greater than 30 µM; at Thromboxane A2 receptor [2], greater than 30 µM; in [3] it was greater than 30 µM; in [4], greater than 30 µM; in test [5], 12 µM. The AC50 at Adenosine receptor A1 and at Histamine H3 receptor was greater than 30 µM each time.

The values above are taken from ChEMBL document CHEMBL5291721, “A preclinical secondary pharmacology resource illuminates target-adverse drug reaction associations of marketed drugs” (Nat Commun, 2023).
